We go through five compounds from patent publication US12220467B2, “Highly loaded metal oxide materials by self-assembly for extended biologically active molecule release in medical and dental applications” (MESOSIL INC., priority 2016, dated 2025).

For data set [1] the following is noted: literature values; cited from earlier work.
Data set [2] deals with murine fibroblasts and test microorganisms (Escherichia coli and Staphylococcus aureus). The settings on record: cited from earlier work.
Data set [3] relates to E. coli. The settings on record: cited from earlier work.
Data set [4] relates to murine fibroblasts and test microorganisms (Escherichia coli and Staphylococcus aureus).
From the text: The term “biocompatibility index” is defined by the active agent's effective biological activity and its cytotoxic effect on human or animal cells. […] The biocompatibility index will take into account both the results of the in vitro cytotoxicity, i.e., the concentration at which 50% of the murine fibroblasts are damaged, and the microbial effect, i.e., the concentration at which the baseline burden of the test microorganisms (e.g., Escherichia coli and Staphylococcus aureus) is reduced by at least 3 log 10 (99.9%). A biocompatibility index greater than 1 represent an antibacterial substance with an effective microbicidal activity combined with a relatively low cytotoxicity. […] A biocompatibility index less than 1 indicates an antimicrobial agent with a relatively high cytotoxicity in a defined medium.
The subject of data set [5] is human keratinocyte. The settings on record: cited from earlier work.
Data set [6] deals with S. mutans. Put plainly: Antimicrobial studies against S. mutans. It is filed as cell-based. From the text: According to an embodiment, the amphiphilic biologically active agent may be a synthetic, natural or derived compound having properties for treating or preventing a disease or illness, including: pharmaceutical drugs, pharmaceutical conjugated drugs, pharmaceutical prodrugs, antimicrobial or antiseptic agents, antifungal agents, peptides, DNA or any combinations thereof, which when introduced into the body causes a desired biological response. According to another embodiment, the amphiphilic biologically active agent may be an active agent with a suitable biocompatibility index. Such biologically active agent may have a biocompatibility index greater than 1. According to another embodiment, the preferred amphiphilic biologically active agent may be an antibacterial agent. According to a further embodiment, the most preferred amphiphilic biologically active agent may be the antibacterial agent OCT. OCT is an amphiphilic antiseptic agent with a biocompatibility index of greater than 1. OCT has shown a broad range of efficacy against gram positive and negative bacteria and is used currently as a mouth rinse, wound cleansing agent, topical antiseptic, and for other applications. The CMC of OCT was determined to be 3.79 mM.

Data set [7] relates to mammalian cell. Particulars: cited from earlier work.
Data set [8] has as its system S. aureus. Particulars: cited from earlier work.
Data set [9] deals with murine fibroblasts. The settings on record: cited from earlier work.

Values after ≈ are worked out from the molar mass of the structure shown. Counter-ions that a name gives are not always drawn. Like-named read-outs stand apart in the source and are kept apart here.

In the case of polyhexamethylene biguanide [PHMB], in data set [1], the CMC is 20 to 50 mM. Also, the biocompatibility index in [2] (reported in literature) is recorded as 1.36.

For the compound `CCCCCCCCCCCC(=O)N[C@@H](CCCN=C(N)N)C(=O)OCC` [LAE, lauric arginate], the “MIC against E. coli” value in data set [3] is 11.8 µg/mL (≈ 30.7 µM). Also, the CMC in data set [1] is reported as 4.9 mM. This compound registered a biocompatibility index in data set [4] of 5.33. In data set [5], the “concentration for 50% reduction of human keratinocyte growth” value was 63 µg/mL.

Take `CCCCCCCCN=c1ccn(CCCCCCCCCCn2ccc(=NCCCCCCCC)cc2)cc1` [OCT, octenidine dihydrochloride]: the “antimicrobial activity compared with CHX” value in [6] is on record as “compared favorably with CHX”.

For `CCCCCCCCCCCCCCCC[N+](C)(C)C.[Br-]` [CTAB, cetyltrimethylammonium bromide], the “concentration able to reduce mammalian cell viability” value in [7] is listed as “less than 1 μM”. In addition, the biocompatibility index entry in [2] was “less than 1”. In addition, the “minimum inhibitory concentration (MIC) against S. aureus” value in data set [8] is 16 µg/mL. Moreover, the “concentration for 50% reduction in murine fibroblasts” value in data set [9] was 2 µg/mL.

For the compound benzalkonium chloride, the biocompatibility index in data set [2] is 0.79.
